Test results taken from publication PMC10765375, “Crystal structure and enzymology of Solanum tuberosum inositol tris/tetrakisphosphate kinase 1 (StITPK1)” (Biochemistry, 2023).
Entries after “also recorded” stand apart in the source; their conditions may differ. Structures can show the parent of a compound that is named as a salt. Where two headings read alike, the source gives them in different places.

Legend:
StITPK1 [1] = target: T1, StITPK1 (Solanum tuberosum, UniProt A4H2J0); assay: Kinase assay with ATP, HPLC of products; format: biochemical; conditions: for kinase substrate status: with ATP, HPLC; for Product formation (3h) / Product formation (12h): 25°C
T1 sequence (A4H2J0 entry or part of it): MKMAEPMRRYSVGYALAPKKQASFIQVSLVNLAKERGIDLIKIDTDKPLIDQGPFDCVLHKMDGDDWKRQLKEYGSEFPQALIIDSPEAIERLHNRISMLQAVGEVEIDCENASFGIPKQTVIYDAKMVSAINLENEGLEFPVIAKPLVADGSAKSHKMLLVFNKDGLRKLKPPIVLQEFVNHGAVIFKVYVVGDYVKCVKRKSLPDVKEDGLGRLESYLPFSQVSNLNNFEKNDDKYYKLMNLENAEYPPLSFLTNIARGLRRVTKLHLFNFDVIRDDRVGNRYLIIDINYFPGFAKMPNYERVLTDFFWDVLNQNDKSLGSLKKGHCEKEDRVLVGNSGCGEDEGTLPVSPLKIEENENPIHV
Description: (§1) Kinase assays were performed with ATP-regeneration as described for ATP-grasp kinases ITPK1/2 and VIH1/2 [2-3, 27-29], here in 20 mM HEPES pH 6.5, 1 mM MgCl2, 0.5 mM ATP and 1 mM inositol phosphate substrate. The low rate constants for phospho-kinase activity and the low sensitivity of NMR, PAGE and HPLC […]
(§2) [2-3, 27-29], here with or without 4 µM protein for 3h or 12h at 25 °C. Competition/inhibition assays were […]
InsP6, and competitor, typically 0.5 mM, incubated with or without 3 µM protein for 2 h at 25 °C . […]
(§3) 0.5 mM inositol pyrophosphate substrate incubated with 4 µM protein at 25 °C . HPLC analysis and detection of inositol phosphates by complexation with ferric ion was performed as described. Peak area data were analysed with the chromatography Jasco ChromNav v.2 software and x,y data were imported into GraphPad Prism v.6 software (GraphPad Software Inc., San Diego, USA) for plotting of chromatograms without additional processing of the data. […]

AtITPK1 [2] = test system: T2, AtITPK1; assay: Kinase assay with ATP, HPLC of products; format: biochemical, Arabidopsis thaliana; conditions: for kinase substrate status: with ATP, HPLC
T2 construct: made in house
Description: as §1
(§4) [2-3, 27-29], here with or without 4 µM protein for 3h or 12h at 25 °C. […]
as §3

StITPK1 [3] = target: T1, StITPK1; assay: Competition/inhibition of InsP6 5-phospho-kinase activity, HPLC; format: biochemical; conditions: 5 μM inhibitor, 1 mM InsP6
Description: Figure 6 Inhibition of StITPK1 phospho-kinase activity by inositol pyrophosphate analogs. […] Reactions were performed for 2h at 30 °C with 3 μM StITPK1, 0.5 mM ATP, 1mM inositol phosphate in the absence or presence of competitor. The extent of inhibition at inhibitor concentration (mM) indicated by number in each column was estimated from the integrated peak areas of substrate and product peaks resolved by HPLC (example HPLC traces are shown in Figure S10). Significant difference at p=0.05 between inhibitor treatments (by One-way ANOVA and Tukey’s multiple comparisons test) is indicated by the absence of a common letter.
Schrödinger, LLC, New York, NY, 2021). All models of the complexes were subsequently energy minimized to convergence using the Prime module of Schrodinger (Schrödinger Release 2022-2: Prime) employing the all atom OPLS force field and the VSGB 2.1 implicit solvent model. Illustrations were generated using the PyMOL Molecular Graphics System, Version 2.5 (Schrödinger, LLC). […]
(§5) InsP6, and competitor, typically 0.5 mM, incubated with or without 3 µM protein for 2 h at 25 °C . […] Peak area data were analysed with the chromatography Jasco ChromNav v.2 software and x,y data were imported into GraphPad Prism v.6 software (GraphPad Software Inc., San Diego, USA) for plotting of chromatograms without additional processing of the data.
(§6) Fluorescence polarization (anisotropy) […]

StITPK1 [4] = target: T1, StITPK1; assay: Fluorescence polarization displacement of 2-FAM-InsP5; format: binding; conditions: Cheng-Prusoff with Kd 48 nM
Source text: To determine the relative strengths of binding of different inositol phosphate and inositol pyrophosphate substrates of StITPK1 we undertook fluorescence polarization experiments with 2-FAM-InsP5 [35]. […] A saturation curve for binding of 2-FAM-InsP5 to StITPK1 is shown (Figure S5) and displacement curves are shown for diverse inositol phosphates (Figure 2). The structures of these compounds are shown (Figure S1). […]
Fluorescence polarization (anisotropy)
A curve for binding of 2-FAM-InsP5 to StITPK1 was obtained by incubation of 2 nM 2-FAM-InsP5 [1] with increasing concentration (1-500 nM) of StITPK1 in 20 mM HEPES pH 6.5, 1 mM EDTA, 100 mM NaCl, after. Thereafter, displacement assays were performed by titration of inositol phosphate, inositol pyrophosphate […]
or analog thereof with 2 nM 2-FAM-InsP5 and 50 nM StITPK1. Compounds were tested for displacement in a range of 1 nM - 50 µM. Fluorescence polarization was measured in 384-well, black, low-binding plates, Corning product 3573. Binding and displacement curves (anisotropy) were log transformed and fitted to a 4-parameter logistic (in GraphPad Prism v.6 software (GraphPad Software Inc., San Diego, USA). Fitting of the […]
Substituting the value of Kd for KM in the Cheng-Prusoff equation for competitive inhibition: […]
with concentration of 2-FAM-InsP5 [S], yielded Ki with confidence intervals adjusted by linear approximation.
M.; Jamieson, A. G.; Potter, B. V.; Schwabe, J. W., Insights into the activation mechanism of class I HDAC complexes by inositol phosphates. Nat Commun 2016, 7, 11262. […]

AtITPK1 [5] = test system: T2, AtITPK1; conditions: cited from earlier work
StITPK1 [6] = target: T1, StITPK1; assay: Competition/inhibition of Ins(1,2,3,4,5)P5 5-phospho-kinase activity, HPLC; format: biochemical; conditions: 0.5 mM competing substrate/inhibitor, 1 mM Ins(1,2,3,4,5)P5, 3h experiment
AtVIH2 = test system: AtVIH2; parameters: method as in PMID 31436531; conditions: isolated kinase domain ref 24; cited from earlier work
StITPK1 [7] = target: T1, StITPK1; assay: Fluorescence polarization saturation binding of 2-FAM-InsP5; conditions: 2 nM probe, 1-500 nM StITPK1, one-site binding model
Description: Schrödinger, LLC, New York, NY, 2021). All models of the complexes were subsequently energy minimized to convergence using the Prime module of Schrodinger (Schrödinger Release 2022-2: Prime) employing the all atom OPLS force field and the VSGB 2.1 implicit solvent model. Illustrations were generated using the PyMOL Molecular Graphics System, Version 2.5 (Schrödinger, LLC).
as §1, §2, §5, §6
or analog thereof with 2 nM 2-FAM-InsP5 and 50 nM StITPK1. […] Fluorescence polarization was measured in 384-well, black, low-binding plates, Corning product 3573. […]

StITPK1 [8] = target: T1, StITPK1; assay: Reverse (phosphotransfer to ADP) assay, HPLC; format: biochemical; conditions: 0.5 mM ADP, 12h
Description: The low rate constants for phospho-kinase activity and the low sensitivity of NMR, PAGE and HPLC […]
as §4
(phosphotransfer to ADP) assays were performed with 20 mM HEPES pH 6.5, 1 mM MgCl2, 0.5mM ADP and 0.5 mM inositol pyrophosphate substrate incubated with 4 µM protein at 25 °C . HPLC analysis and detection of inositol phosphates by complexation with ferric ion was performed as described. Peak area data were analysed with the chromatography Jasco ChromNav v.2 software and x,y data were imported into GraphPad Prism v.6 software (GraphPad Software Inc., San Diego, USA) for plotting of chromatograms without additional processing of the data. […]

[9] = 2 nM 2-FAM-InsP5, 50 nM StITPK1, pH 6.5, read-out: Ki for displacement of 2-FAM-InsP5

## O=P(O)(O)O[C@H]1[C@H](OP(=O)(O)O)[C@@H](OP(=O)(O)O)[C@@H](O)[C@@H](O)[C@@H]1OP(=O)(O)O [Ins(3,4,5,6)P4, 1D-myo-inositol 3,4,5,6-tetrakisphosphate]
StITPK1 [1]; vs Ins(1,4,5,6)P4
  Discrimination between InsP4 enantiomers in favour of Ins(3,4,5,6)P4: ~ 200 fold
StITPK1 [1]
  kinase substrate status: better substrate than both its enantiomer Ins(1,4,5,6)P4 and InsP6
AtITPK1 [2]; vs Ins(1,4,5,6)P4
  Discrimination between InsP4 enantiomers in favour of Ins(3,4,5,6)P4: ~ 200 fold
StITPK1 [3]
  inhibition of 5-PP-InsP5-synthesizing (InsP6 phospho-kinase) activity: particularly powerful inhibitor
StITPK1 [4]; [9]
  Ki: 0.716 µM
AtITPK1 [5]
  Vmax relative to InsP6: 3 orders of magnitude greater

## O=P(O)(O)O[C@H]1[C@H](OP(=O)(O)O)[C@@H](OP(=O)(O)O)[C@H](OP(=O)(O)O)[C@@H](OP(=O)(O)O)[C@H]1OP(=O)(O)O [myo-InsP6, myo-inositol 1,2,3,4,5,6-hexakisphosphate]
StITPK1 [1]; 1 mM substrate
  Product formation (3h): 241 μM/μM protein
  Product formation (12h): 289 μM/μM protein
StITPK1 [1]; 1 mM substrate, separate 12h experiment
  Product formation (separate 12h experiment): 220 μM/μM protein
StITPK1 [1]; in the absence of inhibitor, 1 mM substrate, 0.5 mM ATP, pH 6.5
  Kcat (turnover of substrate): ~ 1.14 min^-1
StITPK1 [1]
  kinase substrate status: generating 5-PP-InsP5; also recorded: strongest phospho-kinase substrate
StITPK1 [6]
  % inhibition at 3h, Ins(1,2,3,4,5)P5 substrate: 89%
AtITPK1 [2]
  kinase substrate status: strongest phospho-kinase substrate
StITPK1 [4]; Ki for displacement of 2-FAM-InsP5, 2 nM 2-FAM-InsP5, 50 nM StITPK1, pH 6.5
  Ki: 0.126 µM
AtVIH2
  turnover number, 1-phospho-kinase activity: ~ 0.4 min^-1
AtITPK1 [5]; calculated from data ref 20-21, 27
  Kcat for phospho-kinase activity: ~ 1.5 min^-1

## O=C(NCCO[C@H]1[C@@H](OP(=O)(O)O)[C@H](OP(=O)(O)O)[C@@H](OP(=O)(O)O)[C@H](OP(=O)(O)O)[C@H]1OP(=O)(O)O)c1ccc2c(c1)C(=O)OC21c2ccc(O)cc2Oc2cc(O)ccc21 [2-FAM-InsP5, 2-O-(2-(5-fluoresceinylcarboxy)-aminoethyl)-myo-inositol 1,3,4,5,6-pentakisphosphate (triethylammonium salt)]
StITPK1 [7]
  Kd: 0.048 µM

## O=P(O)(O)O[C@H]1[C@@H](OP(=O)(O)O)[C@H](OP(=O)(O)O)[C@@H](OP(=O)(O)OP(=O)(O)O)[C@H](OP(=O)(O)O)[C@H]1OP(=O)(O)O [5-PP-InsP5, 5-diphospho-myo-inositol 1,2,3,4,6-pentakisphosphate]
StITPK1 [1]; 1 mM substrate
  Product formation (3h): 0 μM/μM protein
  Product formation (12h): 0 μM/μM protein
StITPK1 [1]
  kinase substrate status: not a substrate
StITPK1 [6]
  % inhibition at 3h, Ins(1,2,3,4,5)P5 substrate: 82%
AtITPK1 [2]
  kinase substrate status: not a substrate
StITPK1 [4]; [9]
  Ki: 0.162 µM
AtVIH2
  turnover number, 1-phospho-kinase activity: ~ 1 min^-1

## O=P(O)(O)CP(=O)(O)OC1C(OP(=O)(O)O)C(OP(=O)(O)O)C(OP(=O)(O)O)C(OP(=O)(O)CP(=O)(O)O)C1OP(=O)(O)O (stereo not drawn) [1,5-[PCP]2-InsP4]
StITPK1 [8]
  substrate for phosphotransfer to ADP: neither

## O=P(O)(O)O[C@@H]1[C@@H](OP(=O)(O)O)[C@H](OP(=O)(O)OP(=O)(O)O)[C@@H](OP(=O)(O)O)[C@H](OP(=O)(O)OP(=O)(O)O)[C@@H]1OP(=O)(O)O [1,5-[PP]2-InsP4, 1D-1,5-bis-diphospho-myo-inositol 2,3,4,6-tetrakisphosphate]
StITPK1 [8]
  substrate for phosphotransfer to ADP: both enantiomers are substrates

## O=P(O)(O)O[C@@H]1[C@H](OP(=O)(O)O)[C@H](OP(=O)(O)OP(=O)(O)O)[C@@H](OP(=O)(O)O)[C@H](OP(=O)(O)OP(=O)(O)O)[C@H]1OP(=O)(O)O [3,5-[PP]2-InsP4, 1D-3,5-bis-diphospho-myo-inositol 1,2,4,6-tetrakisphosphate]
StITPK1 [8]
  substrate for phosphotransfer to ADP: both enantiomers are substrates
